# According to patent US8372342B2, “Apparatus for monitoring thrombus formation and method of monitoring thrombus formation” (Fujimori Kogyo Co., Ltd., priority 2005, dated 2013):
# B1: ReoPro: ReoPro (LILLY Co., Ltd.) (antibody, chains of the INN, looked up, V domains shown)
# VH: EVQLQQSGTVLARPGASVKMSCEASGYTFTNYWMHWVKQRPGQGLEWIGAIYPGNSDTSYIQKFKGKAKLTAVTSTTSVYMELSSLTNEDSAVYYCTLYDGYYVFAYWGQGTLVTVSA
# VL: EIVLTQSPVTLSVTPGDSVSLSCRASRDISNNLHWFQQTSHESPRLLIKYASQSMSGIPSRFSGSGSGTDFTLSINSVETEDFGMYFCQQTNSWPYTFGGGTKLEIK
# modifications: Fab
# Assays:
# [1] = test system: plasma coagulation (APTT); test: APTT measurement on plasma (Reference Experiment 2); format: biochemical; conditions: plasma added with 500-μM exosite I recognizing thrombin aptamer
# Description: The measurement of APTT was carried out on […] of plasma with respect to each of sample A added with […] of physiological saline solution, sample B added with […] of 500-μM exosite I recognizing thrombin aptamer, and sample C added with 10 μl of a solution containing 500-μM exosite I recognizing thrombin aptamer and 1500-μM exosite I recognizing thrombin aptamer antisense DNA. The sample A was 44 seconds, the sample B was 2 minutes or more, and the sample C was 45 seconds.
# blood coagulation [2] = test: Time taken for coagulation of blood in Eppendorf tubes (Reference Experiment 1); format: cell-based
# Description: The blood immediately after blood sampling, the blood prepared by adding a volume of one tenth of 300 μg/ml of a maize-derived trypsin inhibitor to the first blood, and the blood prepared by adding a thrombin aptamer that recognizes exosite I to the second blood so as to be 5 μM in concentration were provided. Then, for these three kinds of the blood, the time taken for coagulation were measured in Eppendorf tubes (made of polypropylene). The sample was reversed up side down every one minute and the flowability thereof was confirmed.
# Further, when 5 μM of a thrombin aptamer that recognizes exosite I and 5 μM of a thrombin aptamer that recognizes exosite II were used in combination, blood coagulation was not confirmed even after 3 hours even in the case of the blood free of the trypsin inhibitor.
# [3] = test system: thrombus formation in citrate-treated blood; test: Thrombus formation monitoring in a glass tube chamber with collagen-immersed silk as thrombus inducing material; format: cell-based; conditions: 0.1 mg/ml added to solution A; flown for 15 minutes
# Description: After flowing the solution A in the syringe 20 at 3 ml/min and the solution B in the syringe 21 at 0.3 ml/min for 15 minutes, the thrombus formation chamber 10 was detached and the inside thereof was then washed with a physiological saline solution.
# blood coagulation [4] = test: Thromboelastogram waveform of coagulation (Reference Experiment 3); format: cell-based; conditions: aptamers to exosite I and II; stored at room temperature for 15 minutes
# Description: FIG. 11(A) is a result obtained by analyzing a thromboelastogram waveform of coagulation by adding 10 μM of each of aptamers for exosite I and exosite II to the blood, and after storing the blood at room temperature for 15 minutes, adding 40 μM of each of antisense DNAs of both aptamer. FIG. 11(B) illustrates the thromboelastogram waveform of the blood just after blood sampling.
# FIG. 11(A) is an analysis of a waveform of coagulation with thromboelastogram by storing the blood added with […] of aptamers to exosite I and exosite II at room temperature for 15 minutes, and then by adding 40 μM of antisense DNAs of both aptamers. FIG. 11(B) is a thromboelastogram waveform of the blood just after blood sampling.
# [5] = test system: thrombus formation in citrate-treated blood; test: Thrombus formation monitoring in the FIG. 1 flow apparatus, collagen-coated constriction portion, citrate-treated blood released with CaCl2; format: cell-based; conditions: 1 mg/ml added to solution A
# Description: An apparatus for monitoring thrombus formation illustrated in FIG. 1 is used to fill a syringe 20 with 50 ml of a citrate-treated blood (solution A) in which 9 parts by volume of the blood immediately after the blood sample is mixed with 1 part by volume of 3.2% sodium citrate, and to fill a syringe 21 with 10 ml of 0.2M CaCl2 (solution B). The syringes 20 and 21 are connected to transparent nylon tubes (inlet tube 11 and drug tube 12) with an inner diameter of 3 mm. Both tubes are joined together at a T-shaped joint (cheese) and then connected to a polycarbonate thrombus formation chamber 10 of 3 mm in inner diameter and 1 cm in length through a single nylon tube (inlet tube 11) of 3 mm in inner diameter and 3 cm in length. The thrombus formation chamber 10 itself is constructed as a removable cassette. The joint portion between the cassette and the nylon tube (inlet tube 11) is made liquid-tight via an O-ring made of silicon rubber. A glass member is fixed on the inside of the cassette by an epoxy-based adhesive, thereby forming a constriction portion 14. The constriction portion 14 is designed so that the most narrowed site of the constriction portion 14 may have an inner diameter (the maximum gap between the constriction portion 14 and the inner wall) of 1.5 mm. In addition, the thrombus formation chamber 10 is connected liquid-tight with a tube as a discharge tube 13 having the same diameter and formed of the same material through an O-ring made of silicon rubber, and thus a thrombus monitoring apparatus 1 as illustrated in FIG. 1 is manufactured. Note that flange-type pressure gauges 40 and 41 are mounted on parts of the inlet tube 11 and the discharge tube 13 near the thrombus formation chamber 10 via joints (cheeses), respectively. […]
# An apparatus for monitoring thrombus formation 1 is prepared and thrombus formation is then monitored in a manner similar to Example 1, except that the solution A of Example 1 is further added with an unfractionated heparin (prepared from pig mucous) at a concentration of 1 mg/ml.
# [6] = test system: thrombus formation in whole blood; test: Microchip pressure measurement, collagen/tissue thromboplastin chamber, blood anticoagulated with trypsin inhibitor and thrombin aptamers, released with antisense DNAs (Example 17 system); format: cell-based
# Source text: A microchip 300, where the substrate and the cover of the microchip shown in FIG. 9(B) and FIG. 9(C), respectively, made of the same materials as those of Example 7 were pressure-bonded, was used. The microchip 300 comprises a blood coagulation inhibitor inlet tube 322 and a discharge tube 313 which were connected to the substrate 100 as in the case with the discharge tube of Example 7. However, the grooves of the microchip 300 of FIG. 9 are all formed of 200 μm in depth. […] A solution was prepared such that 1 vial of the Sysmex Corporation PT reagent (tissue thromboplastin) was dissolved in 1 ml of purified water and then dialyzed in purified water, the dialyzed product in purified water was mixed with collagen type I (manufactured by Nitta Gelatin Inc.) at a ratio of 1:1. After that, the applied portion was dried at 4° C. in air and thrombus formation chamber 311 was covered, which was used as a thrombus inducing material 315. The blood was collected after the addition of an anticoagulation treatment agent such that the final concentrations of the respective components in the syringe were 25 μg/ml for maize-derived trypsin inhibitor, 10 μM for exosite I thrombin aptamer, 10 μM for exosite II thrombin aptarner (5′-[…]-3′: SEQ D NO. 3). Immediately before monitoring, the blood thus collected was added with antisense DNAs with respect to thrombin aptamers of exosite I and exosite II so that each of them would reach to a concentration of 40 μM. Then, a syringe (1 ml syringe, manufactured by Terumo Corporation) was filled with the blood and provided as the sample syringe 320 shown in FIG. 9. The My Flow (manufactured by Arbiotec Co., Ltd), which is a micro-feeding pump capable of monitoring the inner pressure of a liquid-feeding pump, was connected to a pressure inlet tube 317 shown in FIG. 9. Mineral oil was pressed into the microchip 300 from the top of the syringe 320 and the blood was pushed out into the microchip 300 at a flow rate of 50 μl/min, while the pressure exerted on the sample syringe 320 was monitored. […]
# [7] = test system: thrombus formation in whole blood; test: Microchip pressure measurement, blood anticoagulated with citric acid and maize-derived trypsin inhibitor, released with calcium chloride (Example 20 system); format: cell-based; conditions: 2 μg/ml
# Description: The blood sampling was carried out with the addition of 3.2% citric acid so that the ratio of citric acid and the blood be 1:9. Further, the blood was added with a maize-derived trypsin inhibitor at a concentration of 25 μg/ml to carry out an anticoagulation reaction. Immediately after adding calcium chloride to the anticoagulated blood so that it should reach 15 mM with respect to the anticoagulated blood at the time of monitoring thrombus formation, the blood was added to a syringe (1-ml syringe, manufactured by Terumo Corporation), followed by inflowing the blood into the same microchip as that of Example 17 at a flow rate of 40 μl/min. Subsequently, a change in pressure was measured using the same system as that of Example 17. The pressure began to rise 15 minutes after starting the pressure measurement and it rose up to about 60 kPa.
# The blood sampling was carried out with the addition of an anticoagulation treatment agent in manner similar to Example 20. Subsequently, the same procedure as that of Example 20 was carried out, except that ReoPro (LILLY Co., Ltd.) was added at a concentration of 2 μg/ml. The measurement of pressure was then performed. The pressure began to rise 20 minutes after starting the pressure measurement and it rose up to about 15 kPa after 25 minutes (FIG. 15).
molecule,measurement,setting,value
"5′-GGTTGGTGTGGTTGG-3′ (listed as DNA, chemistry not given here) [thrombin aptamer]",APTT,[1],≥ 2 min
same,coagulation time,blood coagulation [2]; 5 μM exosite I thrombin aptamer added to the blood already containing trypsin inhibitor,62 min
CC1CNc2c(cccc2S(=O)(=O)N[C@@H](CCCNC(=N)N)C(=O)N2CC[C@@H](C)C[C@@H]2C(=O)O)C1 (stereo partly shown) [Argatroban],presence of thrombus in glass tube by visual observation after washing,[3],did not confirm the presence of thrombus
"thrombin aptamer that recognizes exosite I and thrombin aptamer that recognizes exosite II: combination of exosite I aptamer (SEQ ID NO. 1) and exosite II aptamer 5′-AGTCCGTGGTAGGGCAGGTTGGGGTGACT-3′ (SEQ ID NO. 3) (chain 1 GGTTGGTGTGGTTGG; listed as DNA, chemistry not given here)",effect on blood storage / coagulation by thromboelastogram,blood coagulation [4],allow the blood to be stored
same,time without confirmed blood coagulation,"blood coagulation [2]; 5 μM of each aptamer in combination, blood free of the trypsin inhibitor",> 3 h
unfractionated heparin,thrombus in the thrombus formation chamber by visual observation after washing,[5],thrombus cannot be found
same,decrease in blood flow discharged from the discharge tube,[5]; solutions flown for 10 minutes,no decrease in blood flow
same,pressure difference between inlet tube and discharge tube pressure gauges,[5]; solutions flown for 10 minutes,no pressure difference
same,pressure rose up to,"[6]; 1 unit/ml, flow rate 50 μl/min",about 10 kPa
same,time after starting the measurement at which pressure began to rise,"[6]; 1 unit/ml, flow rate 50 μl/min",13 min
B1,pressure rose up to,[7]; after 25 minutes,about 15 kPa
same,time after starting the pressure measurement at which pressure began to rise,[7]; flow rate 40 μl/min,20 min
same,increase in pressure,"[6]; 50 μg/ml, measurement for 18 minutes",could not be confirmed
